{"source": "patent US11446244B2", "about": "(priority 2020, dated 2022)", "key": {"SARS-CoV": {"system": "SARS-CoV", "conditions": "BALB/c mice; cited from earlier work"}, "[1]": {"conditions": "in vivo; cited from earlier work"}, "SARS-CoV-2": {"system": "SARS-CoV-2", "conditions": "patients with severe COVID-19; intravenous Ribavirin versus supportive care only; cited from earlier work"}, "Coronavirus": {"system": "Coronavirus", "experiment": "Example 7: coronavirus infection patient case, Ribavirin dpi", "assay_type": "in vivo", "conditions": "dpi 60 mg twice daily for 6 days, started after 2 days of fever", "method": "A nonsmoker having no previous lung disease develops symptoms of fever for 2 days and is then immediately started on Ribavirin dpi 2 p or 60 mg twice daily for 6 days. […] They avoid hospitalization and thereby avoids what may have been up to an increased 15-20% risk. Verteporfin and Gemcitabine dpi could be substituted for the Ribavirin."}, "nsp14": {"target": "nsp14 (Severe acute respiratory syndrome coronavirus, UniProt P0C6X7)", "conditions": "cited from earlier work"}, "[2]": {"conditions": "lipophilic solvents such as perfluorocarbons like perflubron; cited from earlier work"}, "[3]": {"target": "YAP1 (yes-associated protein 1) (Homo sapiens, UniProt P46937)", "sequence (P46937 whole entry)": "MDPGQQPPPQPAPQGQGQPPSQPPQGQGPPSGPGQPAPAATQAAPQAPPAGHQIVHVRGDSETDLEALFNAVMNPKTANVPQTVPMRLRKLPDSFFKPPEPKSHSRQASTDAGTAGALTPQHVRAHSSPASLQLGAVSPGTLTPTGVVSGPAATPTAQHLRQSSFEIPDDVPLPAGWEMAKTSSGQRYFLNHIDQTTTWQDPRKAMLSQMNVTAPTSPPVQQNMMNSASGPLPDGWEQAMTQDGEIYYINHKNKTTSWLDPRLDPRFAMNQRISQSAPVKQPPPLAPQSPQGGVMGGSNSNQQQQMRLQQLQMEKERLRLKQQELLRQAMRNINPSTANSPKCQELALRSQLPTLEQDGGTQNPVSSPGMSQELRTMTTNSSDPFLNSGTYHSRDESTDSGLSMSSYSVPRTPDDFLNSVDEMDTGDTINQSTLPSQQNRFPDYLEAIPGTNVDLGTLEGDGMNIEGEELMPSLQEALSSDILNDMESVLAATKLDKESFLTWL", "conditions": "cited from earlier work"}, "Glioblastoma multiforme": {"system": "Glioblastoma multiforme", "experiment": "Example 12: glioblastoma multiforme patient case, Verteporfin nasal and oral inhalation", "assay_type": "in vivo", "conditions": "15 mg two puffs twice daily, six weeks", "method": "The patient had standard of care treatment that included surgical resection, radiation and chemotherapy, but then had recurrence and is not candidate for surgical curative intent.\nImmunohistochemistry at the 2nd operation is positive for PD-L1 and the patient is started on Verteporfin 15 mg two puffs twice daily both nasal and oral for the next six weeks. […] Here, drug delivery via intravenous route is avoided and possible direct brain delivery via nasal pathway is enabled. Here, systematic delivery of the drug by both nasal and oral inhalation is contemplated."}, "[4]": {"conditions": "cited from earlier work"}, "[5]": {"experiment": "Example 11: interstitial pulmonary fibrosis patient case, Verteporfin", "assay_type": "in vivo", "conditions": "15 mg 1 p BID", "from_the_text": "A nonsmoker farmer has a diagnosis of interstitial pulmonary fibrosis with progressive symptoms over the past 6 months and with reduction in FVC by Pulmonary Function testing. […] Here also, Verteporfin combined with inhaled Perflubron nintedanib may be given. Subsequent or concomitant PDT and/or SDT promotes the elimination of myofibroblasts/macrophages that are otherwise engaged in fibrosis."}, "lung metastases": {"system": "lung metastases", "experiment": "Example 9: osteosarcoma lung metastasis patient case, Gemcitabine dpi", "assay_type": "in vivo", "conditions": "Gemcitabine 60 dpi BID", "from_the_text": "2 months later, after standard chemoradiotherapy is completed, they are found to have three 1-cm lung metastases. […] undergoes second line treatment but the lesions progress, so they are started on Gemcitabine 60 dpi BID and has stabilization for 12 months thereafter. Here also, Verteporfin, Ribavirin, and/or Gemcitabine dpi could all be given together coupled with inhaled or intravenous Perflubron (emulsion)."}, "[6]": {"conditions": "intravenous administration; cited from earlier work"}, "[7]": {"experiment": "Example 8: COPD and bilateral pneumonia/ARDS patient case, acetylcysteine dpi", "assay_type": "in vivo", "conditions": "dpi every 4 hours with a bronchodilator", "method": "A smoker with history of moderate chronic obstructive pulmonary disease (COPD) mixed type who has been diagnosed with acute respiratory distress syndrome (ARDS) secondary to bilateral pneumonia. The patient has a very productive cough but not expectorating significant secretions and is currently on high flow system 70% FIO2 (fraction of inspired oxygen). […] The patient is initiated on acetylcysteine dpi every 4 hours along with a bronchodilator (e.g., DUONEB albuterol and ipratropium)."}}, "note": "Entries after “also recorded” stand apart in the source; their conditions may differ."}
{"compound": "NC(=O)c1ncn([C@@H]2O[C@H](CO)[C@@H](O)[C@H]2O)n1", "note": "[Ribavirin]", "values": [{"measurement": "SARS-CoV infection in treated mice", "setting": "SARS-CoV", "value": "increased SARS-CoV1 infection"}, {"measurement": "hemoglobin concentrations", "setting": "[1]", "value": "reduces hemoglobin concentrations"}, {"measurement": "negative conversion time for SARS-CoV-2 test", "setting": "SARS-CoV-2", "value": "not associated with improved negative conversion time; also recorded: not associated with reduced negative conversion time"}, {"measurement": "clinical outcome (symptoms)", "setting": "Coronavirus", "value": "symptomatic improvement"}, {"measurement": "excision of Ribavirin by exonuclease activity of nsp14", "setting": "nsp14", "value": "can efficiently excise"}]}
{"compound": "Verteporfin", "values": [{"measurement": "solubility", "setting": "[2]", "value": "soluble in lipophilic solvents"}, {"measurement": "YAP1 inhibition", "setting": "[3]", "value": "inhibits YAP1"}, {"measurement": "tumor mass", "setting": "Glioblastoma multiforme", "value": "overall reduction in tumor mass"}, {"measurement": "extent of exposure and maximal plasma concentration versus dose", "setting": "[4]; dose between 6-20 mg/m^2", "value": "proportional to the dose"}, {"measurement": "serum half-life", "setting": "[4]; in vivo", "value": "5 to 6", "unit": "h"}, {"measurement": "effect on lung decline", "setting": "[5]", "value": "stabilizing effect on lung decline"}]}
{"compound": "Nc1ccn([C@@H]2O[C@H](CO)[C@@H](O)C2(F)F)c(=O)n1", "note": "[Gemcitabine]", "values": [{"measurement": "duration of stabilization of lung metastases", "setting": "lung metastases", "value": 12, "unit": "months"}, {"measurement": "warning label adverse effects", "setting": "[6]", "value": "can suppress bone marrow function"}]}
{"compound": "CC(=O)N[C@@H](CS)C(=O)O", "note": "[acetylcysteine, N-acetyl cysteine]", "values": [{"measurement": "clinical outcome (need for mechanical ventilation)", "setting": "[7]", "value": "avoid mechanical ventilation"}]}
